Literature values as cited in patent US10772852B2, “Compositions and methods for combination pharmacological treatments to induce a prolonged, mild decrease in core body temperature” (priority 2015, dated 2020).

Experiments:
[1] = system: women with ovarian cancer; conditions: on average, Kumar et al. (2013)
[2] = Boyle et al. 2013
mice = conditions: Reilly et al. 2013

| Structure (SMILES) | likelihood to survive for 5 years after diagnosis versus women not taking the drug [1] | reduction in the risk of cardiovascular events ([2]; 29 different studies) | reduction in the risk of MI ([2]; nine studies) | reduction in the risk of heart failure ([2]; seven studies) | effect on obesity, diabetes, and fatty liver (mice) |
| --- | --- | --- | --- | --- | --- |
| CN(C)C(=N)N=C(N)N [metformin] | nearly four times more likely to survive for 5 years | 10% | 12% | 10% | – |
| CC(C)c1ccc2oc3nc(N)c(C(=O)O)cc3c(=O)c2c1 [amlexanox] | – | – | – | – | reverse obesity, diabetes, and fatty liver in mice |
